Source: PMC12402003 (Frontiers in Nutrition, 2025)

Tests used:
[1] = system: HepG2 cells; test: Oil Red O lipid content in OA-induced high-fat HepG2 cells; conditions: 1 mM OA-induced HepG2 cells, 50 μM, 24 h
[2] = target: MRP2 (Homo sapiens, UniProt Q92887); test: Bidirectional Caco-2 transport with probenecid (MRP inhibitor); conditions: for ER (efflux rate) / Papp (AP → BL) / Papp (BL → AP): 50 μmol/L, + Prob (probenecid 1 mM); for substrate of MRP2: bidirectional assay with probenecid 1 mM
Experimental: (§1) Transport assay: The monolayers were pre-incubated at 37°C for 30–40 min with 5% CO2 in a pre-warmed media, which contained Hanks Balanced Salt solution (HBSS, BioWhittaker), HEPES buffer and D-glucose. For the transport of apical (AP) side to basolateral (BL) side, the media was removed after pre-incubation and 0.5 mL of polyphenols was added to the AP side. 1.5 mL of HBSS were added to the BL side. Then 200 μL of samples were taken from the BL side at 30, 60, 90, 120 and 150 min, respectively. The BA sample volumes removed were therewith replenished with same volumes of the HBSS solution. For the transport of BL to AP, polyphenols were added to BL and samples were taken from AP at a series of time points as above mentioned. The TEER was measured from the beginning to the end of the assay.
(§2) Caco-2 cells (1×10^5 cells/well) were cultured in 96-well plates for 24 h until differentiation, with a TEER value exceeding 400 Ω·cm^2. Bidirectional transport experiments from AP to BL or from BL to AP were performed as mentioned in the transport assay. The apparent permeability coefficients, cumulative release and initial concentrations and efflux rates were determined. In brief, the total transport time was set to 150 min. For AP to BL transport, 0.5 mL of polyphenols were added to AP with 1.5 mL of HBSS to the BL side. 200 μL of samples were collected from BL at different time points (30, 60, 90, 120, and 150 min). For BL to AP transport, polyphenols were added to BL and samples were collected from AP as the mentioned above.

[3] = system: Pparγ; test: Western blot of PPARγ protein in Caco-2/HepG2 co-culture; format: cell-based, human; conditions: OA-induced co-culture, 50 μM, 24 h; compared vs. OA
Experimental: (§3) Cells from the co-culture model were lysed and supernatants were collected. The protein concentrations were determined using the BCA Protein Quantitation Kit. Then electrophoresis of samples was conducted using a SDS-PAGE kit (Beyotime Biotechnology) following the manufacturer’s instructions and transferred to poly-vinylidene difluoride (PVDF) membrane. Next, membranes were incubated in 5% nonfat milk to block non-specific antibody binding for 30 min at room temperature and followed by incubating with primary antibodies and secondary antibodies. Chemiluminescence based-images of the blots were acquired using ImageQuant LAS 500 system (GE, United States). Protein bands were quantified using ImageJ (version 1.53a) software. The changes in expression levels of these proteins detected finally are used to evaluate the sample’s effect on lipid metabolism.

[4] = system: Plin1; test: Western blot of Plin1 protein in Caco-2/HepG2 co-culture; format: cell-based, human; conditions: OA-induced co-culture, 50 μM, 24 h; compared vs. OA
Experimental: as §3

[5] = target: P-gp (Homo sapiens, UniProt P08183); test: Bidirectional Caco-2 transport with verapamil (P-gp inhibitor); conditions: for ER (efflux rate) / Papp (AP → BL) / Papp (BL → AP): 50 μmol/L, + Ver (verapamil 100 μM); for substrate of P-gp: bidirectional assay with verapamil 100 μM
Experimental: as §1, §2

[6] = system: Caco-2 cells; test: MTT cell viability assay in Caco-2 cells; format: cell-based, human; conditions: 24 h; for cell viability: 100 μM, compared to control (0 μM); for change in cell vitality: concentrations below 50 μM
Experimental: Cell culture: […] Subsequently, the supernatant was removed and 200 μL of MTT solution (0.1 mg/mL) was added to each well to incubate for an additional 4 h (200 μL for Caco-2 cells, 100 μL for HepG2 cells, both at a concentration of 0.1 mg/mL). Finally, formazan crystals were completely dissolved in DMSO in a shaker for 10 min and the absorbance was measured at a wavelength of 490 nm using a microplate absorbance reader (FLUOstar Omera, BMG Labtech, Germany). Cell viability was determined using the following equation: Cell viability (%) = (OD sample/OD control) × 100, where OD is the optical density. The absorbance values for drug fractions […], catechin, and […]-catechin) were compared to those of untreated culture (control). Each treatment was set up in triplicate.

Chain of P-gp (P08183 whole entry): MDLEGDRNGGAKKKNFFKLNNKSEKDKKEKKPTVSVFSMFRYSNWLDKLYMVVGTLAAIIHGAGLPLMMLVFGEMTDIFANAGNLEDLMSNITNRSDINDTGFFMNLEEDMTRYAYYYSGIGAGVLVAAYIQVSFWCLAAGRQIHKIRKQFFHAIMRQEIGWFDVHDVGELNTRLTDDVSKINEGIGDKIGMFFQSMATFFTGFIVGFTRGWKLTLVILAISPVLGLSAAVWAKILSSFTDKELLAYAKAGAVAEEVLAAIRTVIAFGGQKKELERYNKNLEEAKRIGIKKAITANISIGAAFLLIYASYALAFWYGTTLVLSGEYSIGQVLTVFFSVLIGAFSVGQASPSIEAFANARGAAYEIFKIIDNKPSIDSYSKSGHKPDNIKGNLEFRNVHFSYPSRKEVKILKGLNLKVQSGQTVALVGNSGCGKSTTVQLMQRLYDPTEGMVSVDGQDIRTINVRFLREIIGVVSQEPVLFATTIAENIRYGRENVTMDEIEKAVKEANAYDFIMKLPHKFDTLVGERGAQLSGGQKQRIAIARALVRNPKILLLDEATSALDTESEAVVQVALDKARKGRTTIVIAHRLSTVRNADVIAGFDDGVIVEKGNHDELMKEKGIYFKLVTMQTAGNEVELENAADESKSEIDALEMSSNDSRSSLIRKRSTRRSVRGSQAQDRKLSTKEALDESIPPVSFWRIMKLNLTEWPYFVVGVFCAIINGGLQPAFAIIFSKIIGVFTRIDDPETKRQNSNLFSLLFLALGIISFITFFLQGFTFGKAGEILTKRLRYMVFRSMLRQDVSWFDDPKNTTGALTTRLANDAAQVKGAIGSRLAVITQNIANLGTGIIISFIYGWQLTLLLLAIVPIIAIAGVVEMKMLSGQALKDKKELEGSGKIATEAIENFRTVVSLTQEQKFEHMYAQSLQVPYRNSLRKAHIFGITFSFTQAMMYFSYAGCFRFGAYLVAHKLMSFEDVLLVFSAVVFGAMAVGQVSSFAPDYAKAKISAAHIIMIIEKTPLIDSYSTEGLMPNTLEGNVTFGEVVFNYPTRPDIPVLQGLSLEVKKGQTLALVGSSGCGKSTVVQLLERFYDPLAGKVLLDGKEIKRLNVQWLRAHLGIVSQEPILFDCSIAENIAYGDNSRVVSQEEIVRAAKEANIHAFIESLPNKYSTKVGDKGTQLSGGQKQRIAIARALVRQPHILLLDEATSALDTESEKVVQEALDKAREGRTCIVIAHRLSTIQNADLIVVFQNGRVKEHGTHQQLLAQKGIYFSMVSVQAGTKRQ
Chain of MRP2 (Q92887 whole entry): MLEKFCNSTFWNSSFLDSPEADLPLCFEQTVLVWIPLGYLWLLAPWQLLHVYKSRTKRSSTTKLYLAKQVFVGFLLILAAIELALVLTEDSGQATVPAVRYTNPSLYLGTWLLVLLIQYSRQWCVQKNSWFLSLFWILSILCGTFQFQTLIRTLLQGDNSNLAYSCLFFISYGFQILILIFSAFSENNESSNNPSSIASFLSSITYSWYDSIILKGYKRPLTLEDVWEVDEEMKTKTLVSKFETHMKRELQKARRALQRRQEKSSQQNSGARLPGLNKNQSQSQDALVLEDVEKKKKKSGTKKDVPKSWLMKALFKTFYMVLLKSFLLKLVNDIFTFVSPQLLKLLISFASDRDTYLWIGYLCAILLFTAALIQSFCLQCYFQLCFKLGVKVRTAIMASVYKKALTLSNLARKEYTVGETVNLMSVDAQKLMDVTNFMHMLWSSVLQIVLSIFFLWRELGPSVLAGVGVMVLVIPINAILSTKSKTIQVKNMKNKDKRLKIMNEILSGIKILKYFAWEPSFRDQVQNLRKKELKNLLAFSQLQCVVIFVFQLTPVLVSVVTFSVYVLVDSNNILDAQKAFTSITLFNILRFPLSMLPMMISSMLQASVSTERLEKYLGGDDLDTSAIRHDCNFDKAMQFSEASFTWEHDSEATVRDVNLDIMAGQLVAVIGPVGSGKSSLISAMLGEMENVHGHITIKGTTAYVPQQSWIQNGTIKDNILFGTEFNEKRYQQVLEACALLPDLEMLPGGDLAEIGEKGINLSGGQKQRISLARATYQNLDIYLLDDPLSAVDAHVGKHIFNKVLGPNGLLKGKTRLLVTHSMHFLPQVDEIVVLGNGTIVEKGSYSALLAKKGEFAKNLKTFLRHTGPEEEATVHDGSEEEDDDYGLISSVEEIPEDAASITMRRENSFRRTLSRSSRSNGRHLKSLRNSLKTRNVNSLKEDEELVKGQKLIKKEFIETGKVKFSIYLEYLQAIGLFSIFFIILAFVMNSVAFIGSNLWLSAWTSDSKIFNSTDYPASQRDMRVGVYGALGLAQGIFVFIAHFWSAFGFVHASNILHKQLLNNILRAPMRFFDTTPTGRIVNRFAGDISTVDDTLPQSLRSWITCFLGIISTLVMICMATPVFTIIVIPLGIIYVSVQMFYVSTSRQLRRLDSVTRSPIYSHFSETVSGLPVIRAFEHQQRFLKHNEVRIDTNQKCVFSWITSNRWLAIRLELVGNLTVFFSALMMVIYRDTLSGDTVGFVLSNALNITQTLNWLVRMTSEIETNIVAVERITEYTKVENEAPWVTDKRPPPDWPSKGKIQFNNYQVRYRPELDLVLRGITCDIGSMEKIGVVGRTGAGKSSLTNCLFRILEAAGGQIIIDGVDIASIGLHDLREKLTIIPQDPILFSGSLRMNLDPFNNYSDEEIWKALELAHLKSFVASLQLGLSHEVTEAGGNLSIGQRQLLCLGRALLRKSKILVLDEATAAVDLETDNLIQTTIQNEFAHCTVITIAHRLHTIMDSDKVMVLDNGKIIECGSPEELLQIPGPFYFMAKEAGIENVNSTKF

`O.Oc1cc(O)c2c(c1)O[C@H](c1ccc(O)c(O)c1)[C@@H](O)C2` [catechin] was tested, and the “decrease of lipid absorption rate (Oil Red O lipid droplets)” value [1] was 31.24%, the “ER (efflux rate)” value ([2]; 30 min) was 0.58 and the “Papp (AP → BL)” value ([2]; 30 min) was 9.19 ± 0.53 ×10^−5 cm /s. For the same molecule, the “Papp (BL → AP)” value ([2]; 30 min) was 5.36 ± 0.52 ×10^−5 cm /s, the “ER (efflux rate)” value ([2]; 60 min) was 0.56 and the “Papp (AP → BL)” value ([2]; 60 min) was 4.46 ± 0.36 ×10^−5 cm /s. The “Papp (BL → AP)” value ([2]; 60 min) was 2.50 ± 0.27 ×10^−5 cm /s, the “ER (efflux rate)” value ([2]; 90 min) was 0.52 and the “Papp (BL → AP)” value ([2]; 90 min) was 1.64 ± 0.37 ×10^−5 cm /s. For the same molecule, the “ER (efflux rate)” value ([2]; 120 min) was 0.51, the “Papp (AP → BL)” value ([2]; 120 min) was 2.48 ± 0.19 ×10^−5 cm /s and the “Papp (BL → AP)” value ([2]; 120 min) was 1.27 ± 0.27 ×10^−5 cm /s. The “ER (efflux rate)” value ([2]; 150 min) was 0.48, the “Papp (AP → BL)” value ([2]; 150 min) was 1.93 ± 0.49 ×10^−5 cm /s and the “Papp (BL → AP)” value ([2]; 150 min) was 0.98 ± 0.34 ×10^−5 cm /s. The “substrate of MRP2” value [2] was “not substrates”, the “PPARγ protein expression level (densitometry)” value [3] was 1.08 and the “Plin1 protein expression level (densitometry)” value [4] was 1.14. For the same molecule, the “ER (efflux rate)” value ([5]; 30 min) was 0.57, the “Papp (AP → BL)” value ([5]; 30 min) was 11.2 ± 0.23 ×10^−5 cm /s and the “Papp (BL → AP)” value ([5]; 30 min) was 6.38 ± 0.37 ×10^−5 cm /s. The “ER (efflux rate)” value ([5]; 60 min) was 0.57, the “Papp (AP → BL)” value ([5]; 60 min) was 6.02 ± 0.37 ×10^−5 cm /s and the “Papp (BL → AP)” value ([5]; 60 min) was 3.45 ± 0.29 ×10^−5 cm /s. The “ER (efflux rate)” value ([5]; 90 min) was 0.51, the “Papp (AP → BL)” value ([5]; 90 min) was 3.98 ± 0.31 ×10^−5 cm /s and the “Papp (BL → AP)” value ([5]; 90 min) was 2.05 ± 0.56 ×10^−5 cm /s. The “ER (efflux rate)” value ([5]; 120 min) was 0.52, the “Papp (AP → BL)” value ([5]; 120 min) was 3.25 ± 0.52 ×10^−5 cm /s and the “Papp (BL → AP)” value ([5]; 120 min) was 1.68 ± 0.29 ×10^−5 cm /s. The “ER (efflux rate)” value ([5]; 150 min) was 0.52, the “Papp (AP → BL)” value ([5]; 150 min) was 2.54 ± 0.17 ×10^−5 cm /s and the “Papp (BL → AP)” value ([5]; 150 min) was 1.32 ± 0.34 ×10^−5 cm /s. For the same molecule, the “substrate of P-gp” value [5] was “not substrates”, the cell viability [6] was 80% and the “change in cell vitality” value [6] was “No significant changes”.

`OC[C@H]1O[C@@H](Oc2cc3c(O)cc(O)cc3[o+]c2-c2ccc(O)c(O)c2)[C@H](O)[C@@H](O)[C@@H]1O` [C3G, Cyanidin-3-O-glucoside] was tested, and the “decrease of lipid absorption rate (Oil Red O lipid droplets)” value [1] was 22.35%, the “ER (efflux rate)” value ([2]; 30 min) was 0.63 and the “Papp (AP → BL)” value ([2]; 30 min) was 8.47 ± 0.39 ×10^−5 cm /s. The “Papp (BL → AP)” value ([2]; 30 min) was 5.31 ± 0.72 ×10^−5 cm /s, the “ER (efflux rate)” value ([2]; 60 min) was 0.61 and the “Papp (AP → BL)” value ([2]; 60 min) was 4.55 ± 0.09 ×10^−5 cm /s. The “Papp (BL → AP)” value ([2]; 60 min) was 2.79 ± 0.37 ×10^−5 cm /s, the “ER (efflux rate)” value ([2]; 90 min) was 0.52 and the “Papp (AP → BL)” value ([2]; 90 min) was 3.12 ± 0.02 ×10^−5 cm /s. For the same molecule, the “Papp (BL → AP)” value ([2]; 90 min) was 1.62 ± 0.08 ×10^−5 cm /s, the “ER (efflux rate)” value ([2]; 120 min) was 0.53 and the “Papp (AP → BL)” value ([2]; 120 min) was 2.45 ± 0.03 ×10^−5 cm /s. The “Papp (BL → AP)” value ([2]; 120 min) was 1.29 ± 0.09 ×10^−5 cm /s, the “ER (efflux rate)” value ([2]; 150 min) was 0.56 and the “Papp (AP → BL)” value ([2]; 150 min) was 1.83 ± 0.09 ×10^−5 cm /s. The “Papp (BL → AP)” value ([2]; 150 min) was 1.06 ± 0.04 ×10^−5 cm /s, the “substrate of MRP2” value [2] was “not substrates” and the “PPARγ protein expression level (densitometry)” value [3] was 1.03. For the same molecule, the “Plin1 protein expression level (densitometry)” value [4] was 1.12, the “ER (efflux rate)” value ([5]; 30 min) was 0.48 and the “Papp (AP → BL)” value ([5]; 30 min) was 11.4 ± 0.49 ×10^−5 cm /s. For the same molecule, the “Papp (BL → AP)” value ([5]; 30 min) was 5.49 ± 0.66 ×10^−5 cm /s, the “ER (efflux rate)” value ([5]; 60 min) was 0.54 and the “Papp (AP → BL)” value ([5]; 60 min) was 5.73 ± 0.21 ×10^−5 cm /s. The “Papp (BL → AP)” value ([5]; 60 min) was 3.07 ± 0.2 ×10^−5 cm /s, the “ER (efflux rate)” value ([5]; 90 min) was 0.51 and the “Papp (AP → BL)” value ([5]; 90 min) was 4.05 ± 0.12 ×10^−5 cm /s. The “Papp (BL → AP)” value ([5]; 90 min) was 2.09 ± 0.03 ×10^−5 cm /s, the “ER (efflux rate)” value ([5]; 120 min) was 0.54 and the “Papp (AP → BL)” value ([5]; 120 min) was 3.16 ± 0.17 ×10^−5 cm /s. For the same molecule, the “Papp (BL → AP)” value ([5]; 120 min) was 1.71 ± 0.15 ×10^−5 cm /s, the “ER (efflux rate)” value ([5]; 150 min) was 0.51 and the “Papp (AP → BL)” value ([5]; 150 min) was 2.47 ± 0.14 ×10^−5 cm /s. For the same molecule, the “Papp (BL → AP)” value ([5]; 150 min) was 1.21 ± 0.28 ×10^−5 cm /s, the “substrate of P-gp” value [5] was “not substrates” and the cell viability [6] was 80%. The “change in cell vitality” value [6] was “No significant changes”.
